Reference: patent US20220048873A1, “PESTICIDALLY ACTIVE C[…] AMIDE DERIVATIVES” (SYNGENTA CROP PROTECTION AG, priority 2018, published 2022)

Experiments:
Format in all cases: in vivo
[1] = tested on: Euschistus heros (Neotropical Brown Stink Bug); experiment: Euschistus heros feeding/contact activity on sprayed soybean leaves; conditions: 120 h, application rate of 200 ppm, N2 nymphs, 5 days after infestation
Description: Soybean leaves on agar in 24-well microtiter plates were sprayed with aqueous test solutions prepared from 10,000 ppm DMSO stock solutions. After drying the leaves were infested with N2 nymphs. The samples were assessed for mortality 5 days after infestation.

[2] = tested on: Plutella xylostella (Diamond Back Moth); experiment: Plutella xylostella feeding/contact activity on treated artificial diet; conditions: 192 h, application rate of 200 ppm, eggs, 8 days after infestation
Description: 24-well microtiter plates with artificial diet were treated with aqueous test solutions prepared from 10,000 ppm DMSO stock solutions by pipetting. After drying, Plutella eggs were pipetted through a plastic stencil onto a gel blotting paper and the plate was closed with it. The samples were assessed for mortality 8 days after infestation.

[3] = tested on: Spodoptera littoralis (Egyptian Cotton Leaf Worm); experiment: Spodoptera littoralis control on sprayed cotton leaf discs; conditions: foliar, 72 h, application rate of 200 ppm, L1 larvae, 3 days after infestation, read-out: control (at least one of mortality, anti-feedant effect, growth inhibition)
Description: Cotton leaf discs were placed onto agar in 24-well microtiter plates and sprayed with aqueous test solutions prepared from 10′000 ppm DMSO stock solutions. After drying the leaf discs were infested with five L1 larvae. The samples were assessed for mortality, anti-feeding effect, and growth inhibition in comparison to untreated samples 3 days after infestation. Control of Spodoptera littoralis by a test sample is given when at least one of the categories mortality, anti-feedant effect, and growth inhibition is higher than the untreated sample.

COC(=O)OCN(CC1(C#N)CC1)C(=O)c1ccc(C2=NO[C@@](c3cc(Cl)c(F)c(Cl)c3)(C(F)(F)F)C2)cc1C [A1, [(1-cyanocyclopropyl)methyl-[4-[(5S)-5-(3,5-dichloro-4-fluoro-phenyl)-5-(trifluoromethyl)-4H-isoxazol-3-yl]-2-methyl-benzoyl]amino]methyl Methyl Carbonate]
≥ 80%: mortality at 200 ppm [1] | mortality at 200 ppm [2] | percent control (mortality, anti-feedant effect or growth inhibition) at 200 ppm [3]

CCOC(=O)OCN(CC1(C#N)CC1)C(=O)c1ccc(C2=NO[C@@](c3cc(Cl)c(F)c(Cl)c3)(C(F)(F)F)C2)cc1C [A2, [(1-cyanocyclopropyl)methyl-[4-[(5S)-5-(3,5-dichloro-4-fluoro-phenyl)-5-(trifluoromethyl)-4H-isoxazol-3-yl]-2-methyl-benzoyl]amino]methyl ethyl carbonate]
≥ 80%: mortality at 200 ppm [1] | mortality at 200 ppm [2] | percent control (mortality, anti-feedant effect or growth inhibition) at 200 ppm [3]
